Data as given in patent US6943268B2 (priority 1999, dated 2005).

system: L-selectin on neutrophils; type: cell-based, human; settings: not given

Row | Compound | approximate concentration for 100% LOSS of L-selectin from cell surface | cell surface L-selectin released | effective concentrations for induction of L-selectin shedding | induction of L-selectin shedding (in words)
1 | NC(=O)CI [Iodoacetamide] | ~10 mM- |  |  | 
2 | COc1ccc(C(c2ccc(OC)cc2)C(Cl)(Cl)Cl)cc1 [Methoxychlor] | ~50 uM- |  |  | 
3 | CSCC[C@H](NC=O)C(=O)N[C@@H](CC(C)C)C(=O)N[C@@H](Cc1ccccc1)C(=O)O [fMLP, formyl-methionyl-leucyl-phenylalanine] |  | at least 90% |  | 
4 | O=C(O)c1cc(SSc2ccc([N+](=O)[O-])c(C(=O)O)c2)ccc1[N+](=O)[O-] [DTNB, 5′,5′-dithio-bis(2-nitrobenzoic acid)] | ~1 mM- |  |  | 
5 | Clc1ccc(C(c2ccc(Cl)cc2)C(Cl)(Cl)Cl)cc1 [DDT] | ~50 uM- |  |  | 
6 | [O-2].[O-2].[O-2].[Sb+3].[Sb+3] [Antimony (Sb203)] | ~50 µM |  |  | 
7 | CN(C)CCCN1c2ccccc2Sc2ccc(Cl)cc21 [Chlorpromazine] | ~50 mM- |  | 10 to 50 µM | 
8 | CCN(CC)C(=S)SSC(=S)N(CC)CC [Disulfiram (Antabuse), Disulfiram] | ~50 uM- |  |  | 
9 | OO [Hydrogen peroxide] | ~150 uM- |  |  | 
10 | COc1cc(-c2ccc(-n3nc(-c4ccccc4)n[n+]3-c3ccc([N+](=O)[O-])cc3)c(OC)c2)ccc1-n1nc(-c2ccccc2)n[n+]1-c1ccc([N+](=O)[O-])cc1 [Nitroblue tetrazolium] | ~100 uM- |  |  | 
11 | CN(C)C(=O)/N=N/C(=O)N(C)C [Diamide] | ~1 mM- |  |  | 
12 | O=C(O)CI [Iodoacetate IA, Iodoacetate] | ~300 uM- |  |  | 
13 | [Cl][Cd][Cl] [Cadmium (CdC12)] | ~1000 µM |  |  | 
14 | Thimerosal | ~500 um- |  |  | 
15 | O=Ic1ccccc1C(=O)O [Iodosobenzoate] | ~1 mM- |  |  | 
16 | CCN1C(=O)C=CC1=O [N-ethylmaleimide] | ~250 uM- |  |  | 
17 | Thioredoxin | ~50 ug/ml- |  |  | 
18 | Protein Disulfide Isomerase | ~20 ug/ml- |  |  | 
19 | Cc1c(CBr)n2c(CBr)c(C)c(=O)n2c1=O [Dibromobimane bBBr, Dibromobimane] | ~100 um- |  |  | 
20 | O=S(=O)(O)c1cc(N=C=S)ccc1C=Cc1ccc(N=C=S)cc1S(=O)(=O)O [DIDS] | ~200 uM- |  |  | 
21 | C1COCCO1 [Dioxane] |  |  |  | itself induces L-selectin release
22 | O=[As]O[As]=O (stereo not drawn) [Arsenic (As203)] | ~50 µM |  |  | 
23 | Cc1c(C)n2c(CBr)c(C)c(=O)n2c1=O [Monobromobimane mBBr, Monobromobimane] | ~100 uM- |  |  | 
24 | NC(=O)N=NC(N)=O [Azodicarbonamide] | ~1 mM- |  |  | 
25 | O=S(=O)(F)Cc1ccccc1 [PMSF] | ~1 mM- |  |  | 

system: L-selectin on lymphocytes; type: cell-based, human; settings: not given

Row | Compound | response of lymphocytes (L-selectin shedding) | time for lymphocytes to shed L-selectin
26 | CSCC[C@H](NC=O)C(=O)N[C@@H](CC(C)C)C(=O)N[C@@H](Cc1ccccc1)C(=O)O [fMLP, formyl-methionyl-leucyl-phenylalanine] | do not respond | 
27 | CCCCCCCCCCCCCC(=O)O[C@@H]1[C@@H](C)[C@@]2(O)[C@@H](C=C(CO)C[C@]3(O)C(=O)C(C)=C[C@@H]23)[C@@H]2C(C)(C)[C@]12OC(C)=O [PMA] |  | ~30 min

system: Mac-1 (CD18/CD11b) on neutrophils; type: cell-based, human; settings: not given

Row | Compound | increase of cell surface Mac-1 expression compared to the ice control
28 | CSCC[C@H](NC=O)C(=O)N[C@@H](CC(C)C)C(=O)N[C@@H](Cc1ccccc1)C(=O)O [fMLP, formyl-methionyl-leucyl-phenylalanine] | 3-10 fold

system: HIV; settings: chlorpromazine: at the concentration of Table I; cited from earlier work

Row | Compound | HIV infectivity
29 | NC(=O)N=NC(N)=O [Azodicarbonamide] | blocks HIV infectivity,
